Measurements published in patent US20020091095A1, “Modulation of Fas and FasL expression” (priority 1999, published 2002).

Tests used:
[1] = tested on: Fas; test: Fas expression at the cell surface by flow cytometry, Jurkat cells; type: cell-based; conditions: Jurkat human leukemia T cells, 100 μg/ml sequence, 48 h, treated vs control cells
Method: (§1) Cancer cells and PBMCs were seeded in 6 well flat-bottom microplates and were maintained at 37° C. in a 5% CO2 atmosphere. Unless stated otherwise, 2×10^5 cells/ml were incubated for 48 h with 0 μg/ml (control) or 100 μg/ml ([…]) (treated) of the sequences.
(§2) Fas and FasL expression were measured by flow cytometry using anti-Fas FITC-conjugated monoclonal antibodies and anti-FasL PE-conjugated monoclonal antibodies in a FACScalibur Flow Cytometer (Becton Dickinson, San Jose, Calif., USA) using the CELLQuest program (Becton Dickinson).
(§3) Results are expressed as percentage (%) increase in the expression of Fas and of FasL measured on treated cells compared to control cells.
(§4) Jurkat human leukemia T cells are an atypical multi-drug resistant human suspension tumor cell model.

[2] = tested on: FasL; test: FasL expression at the cell surface by flow cytometry, Jurkat cells; type: cell-based; conditions: Jurkat human leukemia T cells, 100 μg/ml sequence, 48 h, treated vs control cells
Method: as §1, §2, §3, §4

[3] = tested on: Fas; test: Fas expression at the cell surface by flow cytometry, PBMCs; type: cell-based, human; conditions: 100 μg/ml sequence, 48 h, treated vs control cells
Method: (§5) Peripheral blood mononuclear cells (hereinafter, “PBMCs”) were isolated from human blood by Ficoll-Hypaque (Amersham Pharmacia Biotech, Baie d'Urfée, Québec, Canada) density gradient centrifugation.
as §1, §2, §3

[4] = tested on: FasL; test: FasL expression at the cell surface by flow cytometry, PBMCs; type: cell-based, human; conditions: 100 μg/ml sequence, 48 h, treated vs control cells
Method: as §5, §1, §2, §3

[5] = tested on: Fas; test: Fas expression at the cell surface by flow cytometry, T-24 cells; type: cell-based, human; conditions: T-24 bladder cancer cells, 100 μg/ml sequence, 48 h, treated vs control cells
Method: as §1, §2, §3
(§6) T-24 bladder cancer cells are a p53 mutated human cell line T-24 cells (1.0×10^5 cells/ml) were incubated with the 6 base sequences shown in Table 4.

[6] = tested on: FasL; test: FasL expression at the cell surface by flow cytometry, T-24 cells; type: cell-based, human; conditions: T-24 bladder cancer cells, 100 μg/ml sequence, 48 h, treated vs control cells
Method: as §1, §2, §3, §6

[7] = tested on: Fas; test: Fas expression at the cell surface by flow cytometry, UMUC-3 cells; type: cell-based, human; conditions: UMUC-3 bladder cancer cells, 100 μg/ml sequence, 48 h, treated vs control cells
Method: as §1, §2, §3
(§7) UMUC-3 bladder cancer cells are a P-glycoprotein overexpressing human cell line.

[8] = tested on: FasL; test: FasL expression at the cell surface by flow cytometry, UMUC-3 cells; type: cell-based, human; conditions: UMUC-3 bladder cancer cells, 100 μg/ml sequence, 48 h, treated vs control cells
Method: as §1, §2, §3, §7

[9] = tested on: Fas; test: Fas expression at the cell surface by flow cytometry, OVCAR-3 cells; type: cell-based, human; conditions: OVCAR-3 ovarian cancer cells, 100 μg/ml sequence, 48 h, treated vs control cells
Method: as §1, §2, §3
(§8) OVCAR-3 ovarian cancer cells are a p53 mutated, p21/waf-1/Cip deleted, metastatic human solid tumor model.

[10] = tested on: FasL; test: FasL expression at the cell surface by flow cytometry, OVCAR-3 cells; type: cell-based, human; conditions: OVCAR-3 ovarian cancer cells, 100 μg/ml sequence, 48 h, treated vs control cells
Method: as §1, §2, §3, §8

[11] = tested on: Fas; test: Fas expression at the cell surface by flow cytometry, SK-OV-3 cells; type: cell-based, human; conditions: SK-OV-3 ovarian cancer cells, 100 μg/ml sequence, 48 h, treated vs control cells
Method: as §1, §2, §3
(§9) SK-OV-3 ovarian cancer cells are a p53 mutated, p21/waf-1/Cip deleted, p15^ink4B,p16^ink4 deleted metastatic human solid tumor model.

[12] = tested on: FasL; test: FasL expression at the cell surface by flow cytometry, SK-OV-3 cells; type: cell-based, human; conditions: SK-OV-3 ovarian cancer cells, 100 μg/ml sequence, 48 h, treated vs control cells
Method: as §1, §2, §3, §9

[13] = tested on: Fas; test: Fas expression at the cell surface by flow cytometry, LNCaP cells; type: cell-based, human; conditions: LNCaP prostate cancer cells, 100 μg/ml sequence, 48 h, treated vs control cells
Method: as §1, §2, §3
(§10) LNCaP prostate cancer cells are a TGF-beta 1 receptor negative, […], metastatic human solid tumor model.

[14] = tested on: FasL; test: FasL expression at the cell surface by flow cytometry, LNCaP cells; type: cell-based, human; conditions: LNCaP prostate cancer cells, 100 μg/ml sequence, 48 h, treated vs control cells
Method: as §1, §2, §3, §10

[15] = tested on: Fas; test: Fas expression at the cell surface by flow cytometry, MCF-7 cells; type: cell-based, human; conditions: MCF-7 breast cancer cells, 100 μg/ml sequence, 48 h, treated vs control cells
Method: as §1, §2, §3
(§11) MCF-7 human breast cancer cells are a caspase-3 negative, estrogen-dependent human solid tumor model.

[16] = tested on: FasL; test: FasL expression at the cell surface by flow cytometry, MCF-7 cells; type: cell-based, human; conditions: MCF-7 breast cancer cells, 100 μg/ml sequence, 48 h, treated vs control cells
Method: as §1, §2, §3, §11

[17] = tested on: EL-4 murine T lymphoma cells; test: EL-4 murine T lymphoma implanted in C57/BL6 lpr/lpr mice; type: in vivo
Method: EL-4 murine T lymphoma cells are implanted into C57/BL6 lpr/lpr (Fas negative mice). The mice are divided into 30 groups of 10 mice. On day 0, group 1 mice receive saline, group 2 mice receive 1, 10 or 100 mg/kg of SEQ. ID NO:5, group 3 mice receive 1, 10 or 100 mg/kg of SEQ. ID NO:16, group 4 receive 1, 10 or 100 mg/kg of SEQ. ID NO:17, group 5 mice receive 1, 10 or 100 mg/kg of SEQ. ID NO: 18, group 6 mice receive anti-Fas antibodies, group 7 mice receive 1, 10 or 100 mg/kg of SEQ. ID NO:5 +anti-Fas antibodies, group 8 mice receive 1, 10 or 100 mg/kg of SEQ. ID NO: 16 +anti-Fas antibodies, group 9 receive 1, 10 or 100 mg/kg of SEQ. ID NO:17 +anti-Fas antibodies, group 10 mice receive 1, 10 or 100 mg/kg of SEQ. ID NO:18 +anti-Fas antibodies. In these different groups, anti-Fas antibodies are administered at any dose in the range of about 0.003 to about 0.3 mg/kg. […] The efficacy of the SEQ. ID NO:5, the SEQ. ID NO: 16 and the SEQ. ID NO: 17 is dose-dependent.

[18] = tested on: EAE; test: EAE in (SJL/J×PL/J) F1 mice induced with myelin basic protein; type: in vivo; conditions: for progression of EAE: sequence 1, 10 or 100 mg/kg + anti-Fas antibodies, for 3 days
Method: Female (SJL/J×PL/J) F1 mice are injected subcutaneously in both femoral regions with an emulsion containing 0.5 mg of myelin basic protein (MBP) mixed with complete Freund's adjuvant. After 24 h, 400 ng of Bordetella pertussis toxin is administered intraperitoneally. On the day of onset (day 0), group 1 mice receive saline, group 2 mice receive 1, 10 or 100 mg/kg of SEQ. ID NO:5, group 3 mice receive 1, 10 or 100 mg/kg of SEQ. ID NO:16, group 4 mice receive 1, 10 or 100 mg/kg of SEQ. ID NO:17, group 5 mice receive 1, 10 or 100 mg/kg of SEQ. ID NO: 18, group 6 mice receive anti-Fas antibodies, group 7 mice receive 1, 10 or 100 mg/kg of SEQ. ID NO:5 +anti-Fas antibodies, group 8 mice receive 1, 10 or 100 mg/kg of SEQ. ID NO:16 +anti-Fas antibodies, group 9 receive 1, 10 or 100 mg/kg of SEQ. ID NO:17 +anti-Fas antibodies, group 10 mice receive 1, 10 or 100 mg/kg of SEQ. ID NO: 18 +anti-Fas antibodies for 3 days by intracistemal administration (20 μg/day). In these different groups, anti-Fas antibodies are administered at any dose in the range of about 0.003 to about 0.3 mg/kg. […] The efficacy of the SEQ. ID NO:5, the SEQ. ID NO: 16 and the SEQ. ID NO: 17 is dose-dependent.

[19] = sequence 1, 10 or 100 mg/kg + anti-Fas antibodies, vs all other groups
[20] = single agent (sequence 1, 10 or 100 mg/kg, or anti-Fas antibodies) vs group 1 (saline)

Sequence | % INCREASE Fas [1] | % INCREASE FasL [2] | % INCREASE Fas [3] | % INCREASE FasL [4] | % INCREASE Fas [5] | % INCREASE FasL [6] | % INCREASE Fas [7] | % INCREASE FasL [8] | % INCREASE Fas [9] | % INCREASE FasL [10] | % INCREASE Fas [11] | % INCREASE FasL [12] | % INCREASE Fas [13] | % INCREASE FasL [14] | % INCREASE Fas [15] | % INCREASE FasL [16] | tumor mass [17, 19] | tumor mass [17, 20] | progression of EAE [18] | also measured
GGGCGG [SEQ ID NO:18] | 208% | 356% | 523% | 850% | 139% | 205% | 72% | 250% | 65% | 142% | 29% | 42% | 55% | 126% | 165% | 322% | least tumor mass | less tumor mass | least progression of EAE | –
GGGGGG [SEQ ID NO:16] | 118% | 49% | 38% | 42% | 35% | −14% | −5% | 10% | −1% | 7% | −14% | −28% | 6% | 13% | −7% | 18% | least tumor mass | less tumor mass | least progression of EAE | efficacy, dose dependence ([17]; 1, 10 or 100 mg/kg): dose-dependent; efficacy, dose dependence ([18]; 1, 10 or 100 mg/kg): dose-dependent
